Experimental data published in PubChem BioAssay (NCI).
Several values for one entry are separate records, joined by “and”; a condition that tells them apart may be missing. Equal entries are not always repeated.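 These data come from cells grown in 96-well plates and exposed to compound for 48 hours at five concentrations. GI50: concentration for 50% inhibition of growth. TGI marks complete inhibition of growth.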

Tests used:
Experiment in all cases: NCI-60 cell line screen, 48 h
U251 CNS = test system: U251 CNS
HS 578T breast = test system: HS 578T breast
UACC-257 melanoma = test system: UACC-257 melanoma
UO-31 renal = test system: UO-31 renal
HCT-116 colon = test system: HCT-116 colon
MDA-MB-435 = test system: MDA-MB-435
SK-MEL-28 melanoma = test system: SK-MEL-28 melanoma
HOP-92 NSCLC = test system: HOP-92 NSCLC
UACC-62 melanoma = test system: UACC-62 melanoma
SK-MEL-2 melanoma = test system: SK-MEL-2 melanoma

Compound	TGI (U251 CNS)	TGI (HS 578T breast) [µM]	TGI (UACC-257 melanoma)	TGI (UO-31 renal)	TGI (HCT-116 colon)	TGI (MDA-MB-435)	TGI (SK-MEL-28 melanoma) [µM]	TGI (HOP-92 NSCLC)	TGI (UACC-62 melanoma)	TGI (SK-MEL-2 melanoma)	GI50 (U251 CNS) [µM]	GI50 (HCT-116 colon) [µM]	GI50 (HOP-92 NSCLC) [µM]	GI50 (UACC-62 melanoma) [µM]	GI50 (UO-31 renal) [µM]	GI50 (SK-MEL-28 melanoma) [µM]	GI50 (UACC-257 melanoma) [µM]	GI50 (MDA-MB-435) [µM]	GI50 (SK-MEL-2 melanoma) [µM]
CN1CCN(C2=CC(=O)c3c(O)ccc(O)c3C2=O)CC1	2.97 µM	4.1	0.467 µM	2.92 µM	0.578 µM	0.332 µM	3	3.29 µM	3.13 µM	4.08 µM									
COC(=O)c1c(O)ccc2c1c1c(n2Cc2ccccc2)C(=O)c2ccccc2C1	> 100 µM	> 100	> 100 µM	> 100 µM	> 100 µM	> 100 µM	> 100		> 100 µM	> 100 µM									
C=C(C(=O)O[C@H]1C(=O)C2=C(C)CCC3C(=C)C(=O)O[C@@H]3C2[C@]1(C)O)C1CC[C@]2(C)CCCC(=C)[C@H]2C1 (stereo partly drawn)	7.04 µM and 9.95 µM	15.8	14 µM and 12 µM	12 µM and 16.5 µM	9.96 µM and 8.4 µM	10.1 µM and 8.5 µM	12.5	14.2 µM and 11.3 µM	9.79 µM and 31.6 µM	20.3 µM and 23.5 µM	0.117	2.09	7.27	16.9					
CCOC(=O)/C=C(\C(=O)OCC)n1ccc(=O)[nH]c1=O	32.6 µM	99.8	12.3 µM	31.1 µM	19.6 µM	38 µM	33.4	9.04 µM	31.3 µM	50 µM									
Oc1ccc(Cl)cc1C1=NC(/N=C\c2ccccc2)=NC(c2ccccc2)C1 (stereo not drawn)	> 100 µM	> 100	> 100 µM	74.1 µM	> 100 µM	> 100 µM	> 100	> 100 µM	> 100 µM	> 100 µM									
CCCCNC(=O)/N=C/c1c(O)c2ccccc2oc1=O			> 100 µM	56.3 µM	> 100 µM		> 100	> 100 µM	> 100 µM	66.1 µM									
COc1ccc(N2NC(c3ccccc3)(c3ccccc3)C(C)C2=O)cc1 (stereo not drawn)	> 100 µM	> 100	> 100 µM	> 100 µM	> 100 µM	> 100 µM	> 100	> 100 µM	> 100 µM	> 100 µM									
CCCCCCCCCCCCCC(=O)N(CCCCCCCCC)CC(O)C(O)C(OC1OC(CO)C(O)C(O)C1O)C(O)CO (stereo not drawn)	38.6 µM	51.9	32.1 µM	34.5 µM	32.1 µM	34.6 µM	33.6	34 µM	38.2 µM	59 µM									
CCCC(=O)[O-].N.N.N.N.N.[Co+3].[O-][Cl+3]([O-])([O-])[O-]	> 100 µM		> 100 µM	> 100 µM	> 100 µM		> 100	> 100 µM	> 100 µM	> 100 µM									
C=C(C)CNC(=S)N(N)c1ccc2ccccc2c1	> 100 µM	> 100	> 100 µM	> 100 µM	> 100 µM	> 100 µM	> 100	> 100 µM	76.8 µM										
Brc1ccc2c(-c3csc(-c4c[nH]c5ccccc45)n3)c[nH]c2c1	31.7 µM		50.7 µM	27.6 µM	29.6 µM	32.9 µM	31	33.3 µM	35.9 µM										
Cn1c(O)c(C=Nc2ccccc2Cl)c(=O)n(C)c1=O	> 100 µM	> 100	> 100 µM	> 100 µM	35.5 µM	> 100 µM		> 100 µM	> 100 µM	41.1 µM									
Cc1nc2ccccc2c(/C=C/c2ccc(Cl)cc2)c1C(=O)/C=C/c1ccccc1	3.07 µM			2.4 µM			3.22				1.61				1.18	1.74			
C=C1CN(C2=NCCO2)C1		> 100	> 100 µM	> 100 µM	> 100 µM	> 100 µM	> 100	> 100 µM	> 100 µM	> 100 µM									
COC(=O)C(NC(=O)c1ccccc1)C(c1ccc(Cl)cc1)P(=O)(OC)OC (stereo not drawn)	> 100 µM		> 100 µM	> 100 µM	> 100 µM		> 100	> 100 µM	> 100 µM	> 100 µM									
Cc1ccc(CCC(=O)C(=O)O)s1	> 100 µM		> 100 µM	> 100 µM	> 100 µM		> 100	> 100 µM	48.6 µM	> 100 µM									
COc1ccc(Sc2ccccc2N)cc1	49.8 µM		> 100 µM	92.9 µM	> 100 µM		77.3	74.4 µM	> 100 µM	> 100 µM									
CCOC(=O)N1CCC(=C2c3ccc(Cl)cc3CCc3cccnc32)CC1		> 100	29.6 µM	4.49 µM	32.4 µM	24.9 µM	20.3	24.2 µM	18.9 µM	27.4 µM									
S=c1[nH]c2ccc(I)cc2c(=S)n1Cc1ccccc1	12.9 µM	> 100	7.34 µM	24.8 µM	13.2 µM	> 100 µM	> 100	9.34 µM		18 µM									
O=C(N/N=C/c1cc(Br)cc(Br)c1[O-])c1ccccc1O.O=C(N/N=C/c1cc(Br)cc(Br)c1[O-])c1ccccc1O.[Ni+2]	1.84 µM		2.28 µM	8.5 µM	1.55 µM		1.96	2.02 µM	0.661 µM	1.3 µM									
CC(=O)OC1COC(Nc2nc(N)n(C)c(=O)c2N=O)C(OC(C)=O)C1OC(C)=O (stereo not drawn)	> 10 µM	> 10	> 10 µM		> 10 µM	> 10 µM	> 10	> 10 µM	> 10 µM	> 10 µM									
COC1OC2=CCC3C(=O)NC(=O)C3C2[C@H](OCc2ccccc2)C1OCc1ccccc1 (stereo partly drawn)	33.3 µM		3.68 µM	32.2 µM	3.21 µM		3.3	4.15 µM	6 µM	16.4 µM									
COc1ccc2nc3cc(Cl)ccc3c(NCCNc3c4ccc(Cl)cc4nc4ccc(OC)cc34)c2c1	3.28 µM		3.69 µM			3.21 µM	3.4	3.51 µM		3.5 µM	1.77		2.01			1.86	2.06	1.76	1.81
